Results published in US11083723B2, “Use of roluperidone to treat negative symptoms and disorders, increase neuroplasticity, and promote neuroprotection” (Minerva Neurosciences, Inc., priority 2018, dated 2021).
Counter-ions that a name gives are not always drawn.

Assays:
[1] = test system: BDNF expression by astrocytes; experiment: BDNF expression by astrocytes, qPCR; format: cell-based, rat; details: for BDNF expression astrocytes, % increase of control conditions: 5 days incubation; for BDNF expression by astrocytes, fold change (Fc) compared to control condition: 5 days
Method: For analysis of BDNF expression by real-time quantitative polymerase chain reaction (qPCR), astrocytes were seeded in 24 well-plates pre-coated with poly-D-lysine. After 1 day of culture, fresh serum free medium containing compounds was added during 5 days at 37° C. At the end of the incubation time total RNA content were extracted and reverse transcription was performed. Expression levels were calculated using the ΔCt method where the expression level of the mRNA of interest is given by 2-ΔCT with ΔCT=CT target mRNA−CT reference mRNA (Gapdh), in the same sample.
Rat Primary Culture of Astrocytes—rat mixed glial cells were cultured as described by McCarthy et al., 1980. Primary rat glial cells were prepared from the cortical of newborn Wistar rats (1 day). Briefly, meninges and blood vessels of the mice cortex were removed and placed in ice-cold medium of Leibovitz (L15; PanBiotech, ref P04-27055, batch 4511117) containing 2% of Penicillin-Streptomycin (PS; PanBiotech, ref P06-07100, batch 2110917) and 1% of bovine serum albumin (BSA; PanBiotech, ref P06-1391100, batch H171006). Tissues were dissociated with 0.25% trypsin-EDTA (PanBiotech, ref P10-023100, batch 8970318) at 37° C. for 10 min. Cells were then submitted to a supplementary incubation of 15 min at 37° C. in presence of deoxyribonuclease I (0.1 mg/ml Panbiotech, ref: P60-37780100, batch: H170706). Cells were then pelleted (5 min at 1200 rpm) and trypsinization was stopped by adding DMEM (Panbiotech, Ref P04-03600, Batch 5181217) supplemented with 10% FCS (Fischer, Ref 10270106, batch 42G2068K), 1 mM of Na/pyruvate (PanBiotech, ref: P04-43100, batch: 3470914) and 2% PS. Cells suspension was mechanically dissociated and filtered through 40 μm diameter nylon meshes (BD Falcon, Ref: 352340). The cells were collected by centrifugation at 1200 rpm/min for 10 min, re-suspended in culture medium and then plated in culture flasks (Dutscher, ref: 690175). Cells were seeded at a density of 1.25×10^5 cells/cm^2 and cultured in 5% CO2 at 37° C. Medium was changed three times per week.
Analysis of BDNF expression by real-time quantitative polymerase chain reaction (PCR): astrocytes were seeded in 24 well-plates pre-coated with poly-D-lysine (Sigma, ref P7886, batch: SLBQ9797V). After 1 day of culture, fresh serum free medium containing compounds was added during 5 days at 37° C. At the end of the incubation time, medium was removed and total RNA content were extracted using kit nucleo spin RNS XS (Macherey Nagel; 20 μL/well). 6 wells/condition were done. RNA concentration was determined using a Nanodrop 2000 spectrophotometer (Life Technologies ThermoFisher Scientific, Villebon sur Yvette, France).
Reverse transcription was performed on 500 ng of RNA using the high capacity RNA-to-cDNA mix (Applied Biotechnologies). qPCR was performed on 12.5 ng of cDNA using the following primers, purchased from Applied Biotechnology.
For qPCR reactions, the kit TaqMan™ Fast Universal PCR Master Mix (2×) was used. The following volumes were used: mix: 10 uL, enzyme: 4 uL, oligo: 1 uL each, cDNA: 5 uL (12,5 ng). For the comparisons between various compounds and concentrations, expression levels were calculated using the ΔCt method where the expression level of the mRNA of interest is given by 2-ΔCT with ΔCT=CT target mRNA−CT reference mRNA (Gapdh), in the same sample. For the cultures treated with GA or the unknown compound, relative expression levels were determined according to the ΔΔCt method where the expression level of the mRNA of interest is given by 2-ΔΔCT where ΔΔCT=ΔCt for treated cultures−ΔCt for untreated cultures.

sigma2 receptors = sigma2 receptors (Homo sapiens, UniProt Q5BJF2); experiment: Molecular binding profile, sigma2
Sequence of sigma2 receptors (Q5BJF2 whole entry): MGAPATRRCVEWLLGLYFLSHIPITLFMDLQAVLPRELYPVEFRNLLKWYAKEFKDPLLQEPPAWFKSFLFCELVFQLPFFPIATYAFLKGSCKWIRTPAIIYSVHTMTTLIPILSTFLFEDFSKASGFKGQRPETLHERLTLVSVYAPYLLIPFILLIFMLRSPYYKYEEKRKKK

[2] = test system: BDNF release by primary hippocampal neurons; experiment: BDNF release by primary hippocampal neurons, in situ ELISA; format: cell-based, rat; details: 3 days incubation
Method: Hippocampal neurons were plated in 96-well Nunc MaxiSorp surface polystyrene flat-bottom immunoplate precoated with poly-D-lysine during 30 min an anti-BDNF monoclonal antibody overnight at 4° C. at a density of 70,000 cells/well. […] At the end of drug treatment, cells were carefully washed with TBST (20 mM Tris-HCl (pH 7.6), 150 mM NaCl, and 0.05% (vol/vol) Tween 20). The plate was then incubated with the polyclonal anti-human BDNF antibody overnight and BDNF quantified.
Experimental Protocol—In Situ ELISA on Primary Hippocampal Neurons Hippocampal Neuron Culture
Newborn rats (Wistar rats, Janvier) were deeply anesthetized by hypothermia and decapitated. […] Cells were mechanically dissociated by 3 passages through a 10 ml pipette. Cells were then centrifuged at 515×g for 10 min at 4° C. […] Viable cells were counted in a Neubauer cytometer using the trypan blue exclusion test.
Hippocampal neurons were plated in 96-well Nunc MaxiSorp surface polystyrene flat-bottom immunoplate precoated with poly-D-lysine during 30 min (Sigma, Ref: P7886, batch: SLBS8705) an anti-BDNF monoclonal antibody overnight at 4° C. at a density of 70000 cells/well.
At the end of drug treatment, cells were carefully washed with TBST (20 mM Tris-HCl (pH 7.6), 150 mM NaCl, and 0.05% (vol/vol) Tween 20). The plate was then incubated with the polyclonal anti-human BDNF antibody overnight. The amount of specifically bound polyclonal antibody was then detected through the use of the anti-IgY-horseradish peroxidase tertiary antibody, which when exposed to the chromogenic substrate (TMB reagent; Promega), changes color in proportion to the amount of BDNF present in the sample. The color intensity was quantified by measuring the absorbance at 450 nm.

Compound: O=C(CN1CCC(CN2Cc3ccccc3C2=O)CC1)c1ccc(F)cc1 [Compound (I), 1H-Isoindol-1-one, 2-[[1-[2-(4-Fluorophenyl)-2-oxoethyl]-4-piperidinyl]methyl]-2,3-dihydro-, hydrochloride, hydrate (1:1:2)]
- BDNF expression astrocytes, % increase of control conditions ([1]; 0.3 nM): 26%
- BDNF expression astrocytes, % increase of control conditions ([1]; 1 nM): 55%
- BDNF expression by astrocytes, fold change (Fc) compared to control condition ([1]; 1 nM, p<0.05): 1.55
- BDNF expression astrocytes, % increase of control conditions ([1]; 3 nM): 81%
- BDNF expression by astrocytes, fold change (Fc) compared to control condition ([1]; 3 nM, p<0.001): 1.81
- BDNF expression astrocytes, % increase of control conditions ([1]; 10 nM): 71%
- BDNF expression by astrocytes, fold change (Fc) compared to control condition ([1]; 10 nM, p<0.01): 1.71
- BDNF expression astrocytes, % increase of control conditions ([1]; 30 nM): 31%
- BDNF expression astrocytes, % increase of control conditions ([1]; 100 nM): 5%
- Ki (sigma2 receptors): 8.2 nM
- selectivity sigma2 versus sigma1 receptors (sigma2 receptors; sigma2 versus sigma1): 30 fold
- BDNF release hippocampal neurons, % increase of control conditions ([2]; 30 nM): 11.0%
- BDNF release hippocampal neurons, % increase of control conditions ([2]; 100 nM): 14.9%
- BDNF release hippocampal neurons, % increase of control conditions ([2]; 300 nM): 27.5%
- BDNF release hippocampal neurons, % increase of control conditions ([2]; 1 μM): 24.3%
